Test results reported in paper PMC10082216 (Nature Communications, 2023).
Where two headings read alike, the source gives them in different places.

Legend:
[1] = test system: stage V gametocytes of P. falciparum (3D7 pULG8-GFP strain); assay: Post-screening validation with 96-well plate microsphiltration (Paris); type: cell-based, Plasmodium falciparum; conditions: eight-hour exposure
[2] = test system: F32-TEM P. falciparum strain; assay: Resistance selection by TD-6450 drug pulses, dose-response on F32-TEM; type: cell-based, Plasmodium falciparum; conditions: for Parental strain 1 (viability) / Parental strain 2 (viability) / Parental strain 3 (viability): No drug pulses; for IC50: Plasmodium falciparum
Experimental: To assess the ability of P. falciparum to develop resistance against TD-6450, we exposed F32-TEM line parasites, a reference artemisinin-sensitive P. falciparum strain[45], to the drug at 3 µM concentration for three days. We confirmed the absence of parasites on Giemsa-stained smears following exposure, then checked daily for parasite re-appearance in a drug-free culture flask.

[3] = Population PK modeling and simulation of TD-6450 (NONMEM); set-up: species or system human
Text: Data were pooled from two healthy volunteer studies, one single ascending dose (SAD) and the other multiple ascending dose (MAD). Observed concentration data were transformed into their natural logarithms and evaluated using nonlinear mixed-effects modeling in NONMEM v7.4 (Icon Development Solution, Ellicott City, MD). Pirana v3.0, Perl-speaks-NONMEM (PsN) v4.8.1, and Xpose version 4.7.1, were used for automation, model evaluation, and diagnostics during the model building process.
Different structural distribution models were evaluated (1-, 2-, and 3-compartment models) as well as different absorption models (first-order absorption and transit-compartment (n = 1–10) models). Relative bioavailability was fixed to unity for the population to evaluate inter-individual variability and the influence of covariates in the same parameter. […] Other biologically plausible covariate-parameter relationships (i.e. sex and age on all parameters, dose amount and duration of treatment on elimination clearance, absorption rate and relative bioavailability, concomitant food intake on absorption rate and relative bioavailability, and creatinine clearance on elimination clearance) were evaluated with a stepwise addition (p < 0.05) and elimination (p < 0.001) approach. All significant covariates in the forward step were evaluated with both linear and nonlinear functions, and the best-performing model was retained for the backward elimination step. Pharmacokinetic parameters were assumed to be log-normally distributed, and inter-individual variability (IIV) and inter-occasion variability (IOV) were implemented as exponential functions. Estimated IIV below 10% was removed in the final model, and IOV was estimated only on absorption parameters.
Model fit was evaluated primarily by the objective function value (OFV; calculated by NONMEM as proportional to −2 × log-likelihood of the data). Model discrimination between two hierarchical models was determined by a likelihood ratio test, based on the Chi-square distribution of the OFV (i.e. p-value < 0.05 corresponding to ΔOFV > 3.84, at a 1 degree of freedom difference). Goodness-of-fit was used to evaluate the descriptive performances of developed models. Prediction- and variability-corrected visual predictive checks (pvcVPC, n = 2000 simulations) were used to assess the predictive performance of developed models.

[4] = random effect, variance estimate
[5] = residual error, variance estimate
[6] = typical individual 80 kg, steady-state, high oral dose, fasting

## CNC(=O)N1C[C@@H](C)N(c2ccc(C(=O)Nc3ccc(-c4ccc(-c5c[nH]c([C@@H]6CCCN6C(=O)[C@@H](NC(=O)OC)C(C)C)n5)cc4)c(OC(F)(F)F)c3)cn2)C[C@@H]1C [TD-6450]
[1]
  concentration that significantly stiffens mature gametocytes: 200 nM
[2]; 5 µM
  Parental strain 1 (viability): 1.88
  Parental strain 2 (viability): 1.225
  Parental strain 3 (viability): 1.766
[2]; 10 µM
  Parental strain 1 (viability): 1.472
  Parental strain 2 (viability): 0.6944
  Parental strain 3 (viability): 1.083
[2]; 20 µM
  Parental strain 1 (viability): 1.826
  Parental strain 2 (viability): 0.509
  Parental strain 3 (viability): 0.9281
[2]; F32, read-out: IC50, F32-TEM 5 pulses
  IC50: 700 nM
[2]; F32, read-out: IC50, F32-TEM 10 pulses
  IC50: 300 nM
[2]; F32, read-out: IC50, F32-TEM P.S.
  IC50: 200 nM
[2]; after five drug-killing pulses (3 µM, three days)
  fold shift in IC50: 3.5 fold
[2]; after ten drug-killing pulses (3 µM, three days)
  fold shift in IC50: 1.5 fold
[3]; above 240 mg (240 to 500 mg)
  decrease in relative bioavailability per 100 mg increase in dose: 24.7%
[3]; covariate relationship
  Dose on CL/F, population estimate (%RSE): 1.35 (17.9)
  Dose on F, SIR median (95%CI): -0.241 (-0.207 to -0.284)
  Dose on F, population estimate (%RSE): -0.247 (7.92)
  Food on F, SIR median (95%CI): 0.683 (0.475 to 0.885)
  Food on F, population estimate (%RSE): 0.685 (15.0)
  Food on MTT, SIR median (95%CI): 0.927 (0.696 to 1.19)
  Food on MTT, population estimate (%RSE): 0.933 (10.3)
  Time dep. F, SIR median (95%CI): 0.441 (0.355 to 0.569)
  Time dep. F, population estimate (%RSE): 0.439 (12.5)
[3]; food covariate
  higher bioavailability when administered with food: 68.5%
  longer absorption time when administered with food: 93.3%
[3]; [4]
  IIV CL/F, population estimate (%RSE): 0.0148 (21.5)
  IIV F, SIR median (95%CI): 0.151 (0.110 to 0.207)
  IIV F, population estimate (%RSE): 0.150 (16.7)
  IIV MTT, SIR median (95%CI): 0.0683 (0.0551 to 0.0830)
  IIV MTT, population estimate (%RSE): 0.0683 (10.3)
  IIV Vc/F, SIR median (95%CI): 0.0394 (0.0246 to 0.0514)
  IIV Vc/F, population estimate (%RSE): 0.0391 (17.3)
  IIV Vp/F, SIR median (95%CI): 0.0719 (0.0568 to 0.0919)
  IIV Vp/F, population estimate (%RSE): 0.0713 (12.9)
  IOV F, SIR median (95%CI): 0.0622 (0.0445 to 0.0794)
  IOV F, population estimate (%RSE): 0.0631 (13.9)
  IOV MTT, SIR median (95%CI): 0.0870 (0.0613 to 0.118)
  IOV MTT, population estimate (%RSE): 0.0866 (17.1)
[3]; [5]
  RUV, SIR median (95%CI): 0.0568 (0.0520 to 0.0624)
  RUV, population estimate (%RSE): 0.242 (4.48)
[3]; sampling importance resampling
  CL/F, SIR median (95%CI): 12.1 (10.8 to 13.6) L/h
  MTT, SIR median (95%CI): 2.30 (2.13 to 2.50) h
  Q/F, SIR median (95%CI): 28.5 (22.5 to 35.5) L/h
  Vc/F, SIR median (95%CI): 539 (464 to 626) L
  Vp/F, SIR median (95%CI): 445 (384 to 513) L
[3]; [6]
  CL/F, population estimate (%RSE): 12.1 (6.19) L/h
  MTT, population estimate (%RSE): 2.30 (4.14) h
  Q/F, population estimate (%RSE): 28.4 (11.4) L/h
  Vc/F, population estimate (%RSE): 537 (7.89) L
  Vp/F, population estimate (%RSE): 444 (7.36) L
